Data reported in ChEMBL document CHEMBL1201862, “PubChem BioAssay data set” (2004).
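Dose response: 5 concentrations. Exposure: 48 h. Format: 96-well plates. Endpoint: linear interpolation; highest concentration if not reached. GI50 marks 50% less growth.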 The source made the active and inactive calls. Cut-off read from the data, not from the text of the source: active = GI50 up to about 1.1 µM and inactive = higher.

Experiments:
Assay in all cases: NCI-60 cell line screen, 48 h
786-0 = system: 786-0
A498 = system: A498
EKVX = system: EKVX
HCT-116 = system: HCT-116
KM12 = system: KM12
OVCAR-4 = system: OVCAR-4
OVCAR-5 = system: OVCAR-5
OVCAR-8 = system: OVCAR-8
RXF 393 = system: RXF 393
SF-295 = system: SF-295
SF-539 = system: SF-539
SK-MEL-28 = system: SK-MEL-28
SK-MEL-5 = system: SK-MEL-5
SR = system: SR
TK-10 = system: TK-10
UACC-257 = system: UACC-257
UACC-62 = system: UACC-62

SMILES | GI50 (786-0) | GI50 (A498) | GI50 (EKVX) | GI50 (HCT-116) | GI50 (KM12) | GI50 (OVCAR-4) | GI50 (OVCAR-5) | GI50 (OVCAR-8) | GI50 (RXF 393) | GI50 (SF-295) | GI50 (SF-539) | GI50 (SK-MEL-28) | GI50 (SK-MEL-5) | GI50 (SR) | GI50 (TK-10) | GI50 (UACC-257) | GI50 (UACC-62)
COc1c(OC(C)=O)cc2c(OC(C)=O)c1CC(C)CC(OC)C(O)C(C)/C=C(\C)C(OC(N)=O)C(OC)/C=C\C=C(/C)C(=O)N2 (configuration not stated) | > 81.3 µM (inactive) | > 100 µM (inactive) | > 100 µM (inactive) | > 55.5 µM (inactive) | > 100 µM (inactive) | > 100 µM (inactive) | > 100 µM (inactive) | > 65 µM (inactive) | 98.2 µM (inactive) | > 100 µM (inactive) | > 100 µM (inactive) | > 100 µM (inactive) | > 100 µM (inactive) | > 44.2 µM (inactive) | > 81.8 µM (inactive) | > 100 µM (inactive) | > 100 µM (inactive)
COc1cc(C2=NN(C)C(c3ccc([N+](=O)[O-])o3)C2)cc(OC)c1OC (configuration not stated) | 23.1 µM (inactive) | > 100 µM (inactive) | > 100 µM (inactive) | 48.8 µM (inactive) | > 100 µM (inactive) | 91.4 µM (inactive) | > 100 µM (inactive) | > 100 µM (inactive) |  | > 100 µM (inactive) | 49.7 µM (inactive) | 79.8 µM (inactive) | > 100 µM (inactive) | 0.0736 µM (active) | > 100 µM (inactive) | > 100 µM (inactive) | 83.2 µM (inactive)
COc1cc(C(=O)N2CCc3c([nH]c4c([N+](=O)[O-])c(OC)ccc34)C2C)cc(OC)c1OC (configuration not stated) | > 100 µM (inactive) | > 100 µM (inactive) | > 100 µM (inactive) | > 100 µM (inactive) | > 100 µM (inactive) | > 100 µM (inactive) | > 100 µM (inactive) | > 100 µM (inactive) | 26.7 µM (inactive) | > 100 µM (inactive) | 89.1 µM (inactive) | > 100 µM (inactive) |  | > 100 µM (inactive) | > 100 µM (inactive) | > 100 µM (inactive) | 20.1 µM (inactive)
CS(=O)(=O)OCCn1cnc2nc(NC(=O)c3ccccc3)[nH]c(=O)c21 | > 100 µM (inactive) | > 100 µM (inactive) | > 100 µM (inactive) | > 100 µM (inactive) | > 100 µM (inactive) | > 100 µM (inactive) | > 100 µM (inactive) | > 100 µM (inactive) | > 100 µM (inactive) | > 100 µM (inactive) | > 100 µM (inactive) | > 100 µM (inactive) | > 100 µM (inactive) | > 100 µM (inactive) | > 100 µM (inactive) | > 100 µM (inactive) | > 100 µM (inactive)
O=C(c1ccccc1)N1C2CCC1C(C(F)(F)F)=C2C(F)(F)F | > 100 µM (inactive) | > 100 µM (inactive) | > 100 µM (inactive) | > 100 µM (inactive) | > 100 µM (inactive) | > 100 µM (inactive) | > 100 µM (inactive) | > 100 µM (inactive) | > 100 µM (inactive) | > 100 µM (inactive) | > 100 µM (inactive) |  | > 100 µM (inactive) | > 100 µM (inactive) | > 100 µM (inactive) | > 100 µM (inactive) | > 100 µM (inactive)
O=C1c2cnccc2Cc2cccc3c2N1c1ccccc1S3 | 28.1 µM (inactive) | 20.7 µM (inactive) |  | 19 µM (inactive) | 19.7 µM (inactive) | 21.5 µM (inactive) |  |  | 21.6 µM (inactive) | 28.2 µM (inactive) | 20.6 µM (inactive) | 26.1 µM (inactive) | 17.9 µM (inactive) | 12.4 µM (inactive) |  | 23.3 µM (inactive) | 18 µM (inactive)
Cc1cccc(C)c1N1C(=O)C(=O)C(c2nc3ccccc3s2)/C(=N/c2cccc3c(=O)[nH][nH]c(=O)c23)C1=O (configuration not stated) | > 100 µM (inactive) | > 100 µM (inactive) | > 100 µM (inactive) | > 100 µM (inactive) | > 100 µM (inactive) | 79.3 µM (inactive) | > 100 µM (inactive) | > 100 µM (inactive) |  | > 100 µM (inactive) | > 100 µM (inactive) | > 100 µM (inactive) | > 100 µM (inactive) | 99.5 µM (inactive) | > 100 µM (inactive) | > 100 µM (inactive) | > 100 µM (inactive)
CCOCc1cc(=O)c2cc3c(cc2o1)OC(C)(C)CC3 | > 100 µM (inactive) | > 100 µM (inactive) | > 100 µM (inactive) | > 100 µM (inactive) | > 100 µM (inactive) | > 100 µM (inactive) | > 100 µM (inactive) | > 100 µM (inactive) | > 100 µM (inactive) | 93.8 µM (inactive) | > 100 µM (inactive) |  | 56.6 µM (inactive) | 72.3 µM (inactive) | > 100 µM (inactive) | 65.3 µM (inactive) | > 100 µM (inactive)
O=C(O)/C(Cl)=C(\Cl)C(=O)Nc1ccccc1 | > 100 µM (inactive) | > 100 µM (inactive) | > 100 µM (inactive) | > 100 µM (inactive) | > 100 µM (inactive) | > 100 µM (inactive) | > 100 µM (inactive) |  | > 100 µM (inactive) | > 100 µM (inactive) | > 100 µM (inactive) | > 100 µM (inactive) | > 100 µM (inactive) | > 100 µM (inactive) | > 100 µM (inactive) | > 100 µM (inactive) | > 100 µM (inactive)
CCc1cc(Cc2cc(CC)c(NC(=O)C(=O)Cc3ccccn3)c(CC)c2Cl)c(Cl)c(CC)c1NC(=O)C(=O)Cc1ccccn1 | > 100 µM (inactive) | > 100 µM (inactive) | > 100 µM (inactive) | > 100 µM (inactive) | 78.3 µM (inactive) | > 100 µM (inactive) | > 100 µM (inactive) | > 100 µM (inactive) |  | > 100 µM (inactive) | > 100 µM (inactive) | > 100 µM (inactive) | > 100 µM (inactive) | > 100 µM (inactive) | > 100 µM (inactive) | 40.4 µM (inactive) | > 100 µM (inactive)
Oc1cc(-c2cccs2)nc2cc3c(cc12)OCO3 | 3.78 µM (inactive) | 3.17 µM (inactive) | > 62.7 µM (inactive) | 4.14 µM (inactive) | 2.45 µM (inactive) |  | 7.98 µM (inactive) | 4.66 µM (inactive) | 1.9 µM (inactive) | 3.48 µM (inactive) | 3.7 µM (inactive) | 9.33 µM (inactive) | 1.75 µM (inactive) | 4.73 µM (inactive) | 21.3 µM (inactive) | 3.72 µM (inactive) | 2.92 µM (inactive)
O=[N+]([O-])c1ccc(Cl)c(C2CC(c3cccc4ccccc34)=Nc3ccccc3[S+]2[O-])c1 (configuration not stated) | 9.93 µM (inactive) | 24.2 µM (inactive) | > 57.5 µM (inactive) | 9.73 µM (inactive) | 18.9 µM (inactive) | 22 µM (inactive) | 29.5 µM (inactive) | 8.77 µM (inactive) | 7.05 µM (inactive) | 18.2 µM (inactive) | 13.7 µM (inactive) | 19.4 µM (inactive) | 14.4 µM (inactive) | 10.5 µM (inactive) | 31.8 µM (inactive) | 17 µM (inactive) | 10.6 µM (inactive)
